# In patent US20240181007A1, “COMPOSITIONS AND METHODS FOR TREATING PULMONARY HYPERTENSION” (Acceleron Pharma Inc., priority 2021, published 2024):
# Assays:
# TAC-PH mice = assay: Transverse aortic constriction (TAC) induced PH mouse model, C57BL/6 (Example 9); type: in vivo; conditions: 10 mg/kg s.c. twice weekly for 4 weeks from day 14 after TAC, day 42, relative to TAC-PH/PBS
# Source text: The effects of an ActRIIA-mFc fusion polypeptide (SEQ ID NO: 56) was examined in a mouse model of left ventricular systolic dysfunction (also referred to as HErEF) of pulmonary hypertension (PH). In this model, C57BL/6 mice underwent transverse aortic constriction (TAC) to induce left heart failure, and right heart and pulmonary remodeling. See, e.g., Xiong P Y, et al. Hypertension 2018, 71(1):34-55 and Chen Y, et al. Hypertension 2012, 59(6):1170-1178.
# Twenty-six C57/B6 male mice (10 wks old) underwent TAC surgery and ten age-matched animals underwent a mock surgical procedure (Sham) at day 0. Two weeks after the surgery, TAC-PH mice were randomized into two groups. i) fourteen mice were injected subcutaneously with vehicle control (phosphate buffered saline (PBS)), twice weekly for 4 weeks starting from day 14 after surgery, “TAC-PH/PBS”: and a ii) twelve mice were injected subcutaneously with ActRIIA-mFc at a dose of 10 mg/kg twice weekly for 4 weeks starting from day 14 after TAC surgery, “TAC-PH/ActRII-mFc”. At the end of the study, echocardiography and pressure-volume catheter were performed to measure left and right ventricular remodeling and functional changes before animals were euthanized for heart and lung collection. Hearts and lungs of each mouse were weighed, fixed in 10% formalin, embedded in paraffin, and sectioned for Masson's trichrome stain to assess fibrosis.
# Prior to euthanasia, in vivo cardiac function was assessed by transthoracic echocardiography (Acuson P300, 18 MHz transducer; Siemens) in conscious mice. From left ventricle (LV) short axis view, M-mode echocardiogram was acquired to measure left ventricle end diastolic diameter (LVEDD), and left ventricle end systolic diameter (LVESD). Fractional shortening (FS) was calculated from the end-diastolic diameter (EDD) and end-systolic diameter (ESD) using the following equation: FS=100%×[(EDD−ESD)/EDD]. Early diastolic filling peak velocity (E), early diastolic mitral annular velocity (E′), and isovolumetric relaxation time (IVRT) were measured from the medial or septal wall at the mitral valve level from tissue Doppler image. LV diastolic function was assessed by measuring the E/E′ ratio and IVRT. Three to five beats were averaged for each mouse measurement. Tricuspid annular plane systolic excursion (TAPSE), a parameter of global right ventricular function, was also measured.
# On day 42, mice were anesthetized by an intraperitoneal injection of ketamine/xylazine (100/5 mg/kg) to evaluate left and right ventricular function by Millar pressure-volume conductance catheter. The respiration was supported by a small animal ventilator. Thoracotomy was made through 4-5 intercostal space, and the heart was exposed. A pressure-volume catheter (1.0-Fr, PVR-1035, Millar Instruments, Houston, TX, USA) was inserted into the left ventricle and right ventricle from the apex. Ventricular pressure and volume were calculated with LabChart 7 software. Stroke work, ejection fraction, maximum and minimum rate of pressure development (+dp/dtm, −dp/dtm) were derived.
# Obese ZSF1-SU rats = assay: HFpEF induced PH rat model, obese ZSF1 rats challenged with semaxanib (Example 13); type: in vivo; conditions: 5 mpk s.c. twice weekly for 8 weeks from day 64 after semaxanib, relative to Obese ZSF1-SU/Veh
# Experimental: The effects of an ActRIIA-mFc fusion polypeptide (SEQ ID NO: 56) was examined in a rat model of left ventricular diastolic dysfunction (also referred to as HFpEF) group 2 (subgroup 2.2) pulmonary hypertension (PH). In this model, ZSF1-Lepr^faLepr^cp/Crl rats were challenged with semaxanib (SU5416) to induce HFpEF-PH.
# Twenty ZSF1 Lepr^faLepr^cp/Crl male […] (8 wks old) and ten lean rats were subcutaneously administered with a single dose of semaxanib (100 mg/kg) at day 0, and ten lean rats were included as normal control. Eight weeks after semaxanib (SU5416) treatment, twenty ZSF1 Lepr^faLepr^cp/Crl rats were randomized into two groups: i) ten rats were injected subcutaneously with vehicle control (phosphate buffered saline (PBS)), twice weekly for 8 weeks starting from day 64 after semaxanib treatment, “Obese ZSF1 Veh”; and ii) ten rats were injected subcutaneously with ActRIIA-mFc at a dose of 5 mpk twice weekly for 8 weeks starting from day 64 after semaxanib treatment, “Obese ZSF1 ActRIIA-mFc.” At the end of the study, echocardiography and pressure-volume catheter were performed to measure left and right ventricular remodeling and functional changes before animals were euthanized for heart and lung collection.
# Prior to euthanization, in vivo cardiac function was assessed by transthoracic echocardiography (Acuson P300, 18 MHz linear transducer: Siemens) in lightly anesthetized rats as described. Echocardiographic assessments were conducted at week 8 (before therapy with ActRIIA-mFc or vehicle) and week 15 (after therapy) in each rat. From left ventricle short axis view, M-mode echocardiogram was acquired to measure interventricular septal thickness at end diastole (IVSd), left ventricular posterior wall thickness at end diastole (LVPWd), left ventricular end diastolic diameter (LVEDD), and left ventricular end systolic diameter (LVESD). Left ventricular mass (LVM) was assessed by the equation: 1.05 [(LVEDD+LVPTD+IVSd)^3-LVEDD^3]. Early diastolic filling peak velocity (E), early diastolic mitral annular velocity (E′), and isovolumetric relaxation time (IVRT) were measured from the medial or septal wall at the mitral valve level from tissue Doppler image. LV diastolic function was assessed by measuring the E/E′ ratio and IVRT. Pulmonary arterial acceleration time (PAAT), a parameter of right ventricular function, was measured. Tricuspid annular plane systolic excursion (TAPSE), a parameter of global right ventricular function, was also measured. RV free wall thickness (RVFWT) was measured using M-mode in a modified parasternal long-axis view through the aortic valve. Pulmonary artery acceleration time (PAAT) was measured as the time from start to peak velocity of blood flow in the lumen of the main pulmonary artery distal to the pulmonary valve as obtained from the pulse-wave doppler recording.
# Sixteen weeks after semaxanib treatment, rats were anesthetized with ketamine (100 mg/kg) and xylazine (5 mg/kg) at the end of the experiment to evaluate cardiac and pulmonary hemodynamics. The respiration was supported by a small animal ventilator. Thoracotomy was made through 4-5 intercostal space, and the heart was exposed. […] Ventricular pressure and volume were calculated with LabChart 7 software. […] After finishing left ventricular measurements, the catheter was advanced to the aorta, arterial blood systolic and diastolic pressure was detected. […] Similarly, right atrial pressure was measured by moving the catheter from the right ventricle into atrium. […]
substance,measurement,setting,value
ActRIIA-mFc: ActRIIA-mFc fusion polypeptide (SEQ ID NO: 56); extracellular domain fused to murine IgG2a Fc domain with a linker,"cardiac hypertrophy, heart weight/body weight (HW/BW)",TAC-PH mice; FIG. 15,significantly reduced cardiac hypertrophy
same,fractional shortening (FS),TAC-PH mice; FIG. 16,elevated FS
same,LV ejection fraction,TAC-PH mice; FIG. 17,restored LV ejection fraction
same,E/E′ ratio,TAC-PH mice; FIG. 18,reduced E/E′ ratio
same,isovolumetric relaxation time (IVRT),TAC-PH mice; FIG. 19,reduced IVRT
same,right ventricle free wall thickness (RVFWT),TAC-PH mice; FIG. 20,significantly reduced elevated RVFWT
same,tricuspid annular plane systolic excursion (TAPSE),TAC-PH mice; FIG. 21,increased reduced TAPSE
same,RV stroke work,TAC-PH mice; FIG. 22,reduced elevated RV stroke work
same,minimum rate of pressure development in RV (−dp/dTmin),TAC-PH mice; FIG. 23,decreased increased RV−dp/dTmin
same,lung weight (LW/TL),TAC-PH mice; FIG. 24,decreased lung weight
same,lung fibrosis,TAC-PH mice; FIG. 25,significantly reduced lung fibrosis
same,PAAT,Obese ZSF1-SU rats; FIG. 56,significantly increased PAAT
same,right ventricular systolic pressure (RVSP),Obese ZSF1-SU rats; FIG. 57,significantly reduced right ventricular systolic pressure
same,RVWT,Obese ZSF1-SU rats; FIG. 58,significantly reduced elevated RVWT
same,TAPSE,Obese ZSF1-SU rats; FIG. 59,increased TAPSE
same,Fulton index (RV/(LV+S)),Obese ZSF1-SU rats; FIG. 60,decreased Fulton index
